From ChEMBL document CHEMBL2073835, “Apical uptake of organic cations by human intestinal Caco-2 cells: putative involvement of ASF transporters” (Naunyn Schmiedebergs Arch Pharmacol, 2001)

Biological target: T1, Solute carrier family 22 member 3 (Homo sapiens, UniProt O75751)
T1 sequence (O75751 whole entry): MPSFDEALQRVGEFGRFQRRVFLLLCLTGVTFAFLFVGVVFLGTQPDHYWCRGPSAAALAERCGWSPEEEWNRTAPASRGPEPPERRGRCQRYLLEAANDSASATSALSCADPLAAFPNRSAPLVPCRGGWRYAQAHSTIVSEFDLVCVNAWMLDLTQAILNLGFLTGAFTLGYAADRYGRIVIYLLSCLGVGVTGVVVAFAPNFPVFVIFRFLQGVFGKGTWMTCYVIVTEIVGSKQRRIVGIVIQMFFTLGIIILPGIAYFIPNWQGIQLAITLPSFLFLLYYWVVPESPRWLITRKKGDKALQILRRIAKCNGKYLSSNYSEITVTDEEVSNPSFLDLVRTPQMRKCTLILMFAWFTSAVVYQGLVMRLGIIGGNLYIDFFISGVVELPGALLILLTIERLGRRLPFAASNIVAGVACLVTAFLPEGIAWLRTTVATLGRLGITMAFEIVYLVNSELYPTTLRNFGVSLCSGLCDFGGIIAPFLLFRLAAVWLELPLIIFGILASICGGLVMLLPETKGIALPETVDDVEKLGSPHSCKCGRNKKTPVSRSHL
Test: TP_TRANSPORTER: inhibition of MPP+ uptake (MPP+: 0.2 uM) in OCT3-expressing HEK293 cells
Type: functional, cell-based

SMILES	IC50 [µM]
Clc1cccc(Cl)c1N=C1NCCN1 [CLONIDINE]	79.3
CC[n+]1c(CC2C=C(C)N=C(c3ccccc3)N2C)ccc2ccccc21 (stereo not drawn) [Cyanine-863]	1.76
CC[N+](CC)(CC)CC [TETRYLAMMONIUM]	10300
